This passage reports IC50 results from ChEMBL document CHEMBL1154164, “Design, synthesis, biological evaluation, and NMR studies of a new series of arylsulfones as selective and potent matrix metalloproteinase-12 inhibitors” (J Med Chem, 2009).

Where only a bound is given, the exact number is not on record here.

Test [1] deals with 72 kDa type IV collagenase (Homo sapiens, UniProt P08253). The test can be described thus: Inhibition of para-aminophenylmercuric acetate-activated human recombinant pro-MMP2 catalytic domain after 4 hrs by fluorimetry.
Sequence of 72 kDa type IV collagenase (P08253 whole entry, the tested form may be a part): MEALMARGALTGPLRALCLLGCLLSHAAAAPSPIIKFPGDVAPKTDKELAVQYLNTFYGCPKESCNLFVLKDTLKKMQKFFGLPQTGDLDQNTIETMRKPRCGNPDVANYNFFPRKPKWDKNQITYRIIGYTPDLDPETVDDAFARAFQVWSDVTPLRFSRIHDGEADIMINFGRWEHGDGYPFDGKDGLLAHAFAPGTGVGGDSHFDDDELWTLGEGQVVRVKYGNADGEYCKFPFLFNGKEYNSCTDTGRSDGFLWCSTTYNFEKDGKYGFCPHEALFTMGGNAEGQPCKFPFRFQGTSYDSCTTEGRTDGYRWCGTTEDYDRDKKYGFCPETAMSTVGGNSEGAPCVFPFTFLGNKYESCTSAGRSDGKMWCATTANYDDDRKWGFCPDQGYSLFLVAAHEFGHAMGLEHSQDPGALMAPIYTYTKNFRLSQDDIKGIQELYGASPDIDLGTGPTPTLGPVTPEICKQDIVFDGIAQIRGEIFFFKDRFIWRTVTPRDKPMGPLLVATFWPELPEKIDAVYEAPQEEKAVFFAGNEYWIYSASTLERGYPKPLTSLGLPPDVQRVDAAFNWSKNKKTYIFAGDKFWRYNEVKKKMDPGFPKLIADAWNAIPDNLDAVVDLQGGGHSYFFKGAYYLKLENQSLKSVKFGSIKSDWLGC
Test [2] addresses T1, Interstitial collagenase (Homo sapiens, UniProt P03956).
T1 sequence (P03956 whole entry): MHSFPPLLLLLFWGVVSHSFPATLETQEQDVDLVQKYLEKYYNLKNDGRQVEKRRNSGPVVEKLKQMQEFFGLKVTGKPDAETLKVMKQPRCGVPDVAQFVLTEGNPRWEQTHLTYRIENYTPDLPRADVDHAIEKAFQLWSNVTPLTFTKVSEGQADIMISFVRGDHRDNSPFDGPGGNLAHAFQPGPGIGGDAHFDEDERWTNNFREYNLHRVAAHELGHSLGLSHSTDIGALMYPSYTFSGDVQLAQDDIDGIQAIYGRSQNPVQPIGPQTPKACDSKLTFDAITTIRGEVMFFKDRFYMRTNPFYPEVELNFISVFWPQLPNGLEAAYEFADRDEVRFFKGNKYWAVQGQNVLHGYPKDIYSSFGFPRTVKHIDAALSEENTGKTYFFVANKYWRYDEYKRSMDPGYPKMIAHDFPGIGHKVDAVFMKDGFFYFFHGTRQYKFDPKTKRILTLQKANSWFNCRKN
The test can be described thus: Inhibition of para-aminophenylmercuric acetate-activated human pro-MMP1 after 4 hrs by fluorimetry.

In test [3] the target is Matrix metalloproteinase-9 (Homo sapiens, UniProt P14780). Put plainly: Inhibition of para-aminophenylmercuric acetate-activated human recombinant pro-MMP9 catalytic domain after 4 hrs by fluorimetry.
Sequence of Matrix metalloproteinase-9 (P14780 whole entry, the tested form may be a part): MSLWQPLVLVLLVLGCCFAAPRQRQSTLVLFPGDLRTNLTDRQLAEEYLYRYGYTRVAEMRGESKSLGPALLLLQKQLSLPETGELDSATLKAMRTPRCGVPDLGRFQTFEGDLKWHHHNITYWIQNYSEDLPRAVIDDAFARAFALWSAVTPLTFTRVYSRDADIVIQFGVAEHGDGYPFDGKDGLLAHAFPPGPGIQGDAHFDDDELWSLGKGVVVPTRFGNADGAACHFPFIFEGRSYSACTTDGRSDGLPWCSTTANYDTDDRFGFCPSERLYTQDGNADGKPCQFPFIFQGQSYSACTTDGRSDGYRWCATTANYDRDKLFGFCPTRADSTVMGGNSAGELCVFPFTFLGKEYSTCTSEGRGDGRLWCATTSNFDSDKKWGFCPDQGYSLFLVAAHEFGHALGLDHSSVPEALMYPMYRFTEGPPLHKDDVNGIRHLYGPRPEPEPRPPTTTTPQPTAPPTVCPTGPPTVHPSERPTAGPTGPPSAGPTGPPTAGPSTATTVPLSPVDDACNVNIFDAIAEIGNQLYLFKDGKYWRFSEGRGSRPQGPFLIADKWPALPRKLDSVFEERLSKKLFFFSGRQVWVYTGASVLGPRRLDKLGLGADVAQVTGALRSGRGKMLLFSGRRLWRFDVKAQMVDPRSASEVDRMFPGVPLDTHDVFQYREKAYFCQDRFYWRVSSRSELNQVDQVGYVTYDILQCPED
The target of test [4] is Matrix metalloproteinase-14 (Homo sapiens, UniProt P50281). The test can be described thus: Inhibition of human recombinant pro-MMP14 catalytic domain after 4 hrs by fluorimetry.
The target of test [5] is Collagenase 3 (Homo sapiens, UniProt P45452). Put plainly: Inhibition of para-aminophenylmercuric acetate-activated human pro-MMP13 after 4 hrs by fluorimetry.
In test [6] the target is Neutrophil collagenase (Homo sapiens, UniProt P22894). Put plainly: Inhibition of para-aminophenylmercuric acetate-activated human pro-MMP8 after 4 hrs by fluorimetry.
Sequence of Neutrophil collagenase (P22894 whole entry): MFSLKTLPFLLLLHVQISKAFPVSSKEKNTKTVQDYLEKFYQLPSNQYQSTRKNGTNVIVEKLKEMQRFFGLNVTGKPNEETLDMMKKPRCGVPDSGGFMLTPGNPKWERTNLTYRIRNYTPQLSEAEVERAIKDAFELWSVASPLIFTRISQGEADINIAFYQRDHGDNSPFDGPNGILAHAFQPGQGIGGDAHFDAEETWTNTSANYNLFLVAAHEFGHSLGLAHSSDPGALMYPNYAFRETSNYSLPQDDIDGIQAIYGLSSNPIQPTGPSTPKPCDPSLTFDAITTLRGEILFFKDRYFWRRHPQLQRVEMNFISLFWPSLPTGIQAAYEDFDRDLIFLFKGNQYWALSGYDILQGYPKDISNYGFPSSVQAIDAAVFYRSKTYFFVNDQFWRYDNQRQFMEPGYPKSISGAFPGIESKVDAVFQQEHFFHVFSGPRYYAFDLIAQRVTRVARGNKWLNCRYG
The target of test [7] is Stromelysin-1 (Homo sapiens, UniProt P08254). The test can be described thus: Inhibition of trypsin activated human pro-MMP3 after 4 hrs by fluorimetry.
Sequence of Stromelysin-1 (P08254 whole entry, the tested form may be a part): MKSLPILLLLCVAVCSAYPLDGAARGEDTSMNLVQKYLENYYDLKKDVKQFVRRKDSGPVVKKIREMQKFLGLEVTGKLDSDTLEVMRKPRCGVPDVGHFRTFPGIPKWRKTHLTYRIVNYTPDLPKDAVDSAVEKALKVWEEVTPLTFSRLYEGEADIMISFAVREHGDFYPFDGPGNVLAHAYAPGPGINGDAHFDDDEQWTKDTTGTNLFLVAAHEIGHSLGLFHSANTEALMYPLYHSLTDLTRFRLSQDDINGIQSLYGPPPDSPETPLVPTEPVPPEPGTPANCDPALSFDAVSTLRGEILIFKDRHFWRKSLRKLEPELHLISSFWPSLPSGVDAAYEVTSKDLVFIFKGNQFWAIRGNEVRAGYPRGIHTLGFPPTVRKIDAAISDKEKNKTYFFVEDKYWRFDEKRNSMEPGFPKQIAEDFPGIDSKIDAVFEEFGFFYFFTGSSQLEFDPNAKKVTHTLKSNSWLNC
For test [8], the target named is Matrix metalloproteinase-16 (Homo sapiens, UniProt P51512). The test can be described thus: Inhibition of human recombinant pro-MMP16 catalytic domain after 4 hrs by fluorimetry.
Sequence of Matrix metalloproteinase-16 (P51512 whole entry, the tested form may be a part): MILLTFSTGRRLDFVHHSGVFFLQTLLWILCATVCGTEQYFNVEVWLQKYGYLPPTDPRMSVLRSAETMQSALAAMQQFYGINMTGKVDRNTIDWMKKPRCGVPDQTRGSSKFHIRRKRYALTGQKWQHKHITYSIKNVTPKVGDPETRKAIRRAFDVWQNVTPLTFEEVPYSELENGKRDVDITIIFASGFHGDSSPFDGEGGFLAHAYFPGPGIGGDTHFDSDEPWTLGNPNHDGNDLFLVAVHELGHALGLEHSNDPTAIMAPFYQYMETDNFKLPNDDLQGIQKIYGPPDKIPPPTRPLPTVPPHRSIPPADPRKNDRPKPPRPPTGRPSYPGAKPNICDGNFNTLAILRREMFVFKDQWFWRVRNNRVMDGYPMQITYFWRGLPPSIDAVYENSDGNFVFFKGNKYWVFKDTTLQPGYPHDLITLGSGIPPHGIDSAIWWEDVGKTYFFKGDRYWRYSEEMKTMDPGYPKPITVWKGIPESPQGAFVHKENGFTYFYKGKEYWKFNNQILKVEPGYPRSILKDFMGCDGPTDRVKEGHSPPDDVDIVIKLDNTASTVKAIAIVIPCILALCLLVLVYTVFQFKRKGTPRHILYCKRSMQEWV
The target of test [9] is T2, Macrophage metalloelastase (Homo sapiens, UniProt P39900). The test can be described thus: Inhibition of autoactivated human pro-MMP12 after 4 hrs by fluorimetry.
T2 sequence (P39900 whole entry): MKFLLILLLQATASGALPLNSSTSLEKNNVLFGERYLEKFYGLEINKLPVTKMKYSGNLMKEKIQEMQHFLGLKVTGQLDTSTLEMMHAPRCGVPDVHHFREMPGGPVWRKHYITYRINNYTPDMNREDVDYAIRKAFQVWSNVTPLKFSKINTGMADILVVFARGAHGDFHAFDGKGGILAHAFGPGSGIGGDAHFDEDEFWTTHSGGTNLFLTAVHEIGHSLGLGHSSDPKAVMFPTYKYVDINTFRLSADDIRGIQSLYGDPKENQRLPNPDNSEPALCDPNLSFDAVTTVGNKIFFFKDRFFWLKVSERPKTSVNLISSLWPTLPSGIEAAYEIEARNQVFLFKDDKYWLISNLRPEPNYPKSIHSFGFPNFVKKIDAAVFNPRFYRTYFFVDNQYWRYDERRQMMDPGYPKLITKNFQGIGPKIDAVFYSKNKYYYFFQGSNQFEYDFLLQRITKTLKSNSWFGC
Test [10] deals with T2, Macrophage metalloelastase. Put plainly: Inhibition of autoactivated human pro-MMP12 after 1 hr preincubation by fluorimetry.
The target of test [11] is T2, Macrophage metalloelastase. Put plainly: Inhibition of autoactivated human pro-MMP12 after 30 mins preincubation by fluorimetry.

With `O=C(NO)c1ccccc1S(=O)(=O)c1ccc(Oc2ccccc2)cc1`, the IC50 is 1200 nM in test [1]; more than 10000 nM in [2]; 690 nM in test [3]; 1300 nM in test [4]; 2700 nM in test [5]; 620 nM in [6]. For the same compound, the figures for the IC50 in test [7], in [8] and in test [9] were 27000 nM, 1300 nM and 1200 nM, respectively.
Take `COc1ccc(Oc2ccc(S(=O)(=O)c3ccccc3CC(=O)NO)cc2)cc1`: the half-inhibitory concentration (IC50) was determined as 3.5 nM in [1]; 0.85 nM in test [10]; 3500 nM in test [2]; 0.8 nM in [3]; 33 nM in [4]; 4.1 nM in test [5]. For the same compound, the half-maximal inhibitory concentration (IC50) in test [6] came out at 5.1 nM; in test [7], 21 nM; in test [8] it was 32 nM; in test [11] it was 0.89 nM; in test [9], 0.2 nM.
As to `CC(C)ON([C@@H](C(=O)NO)C(C)C)S(=O)(=O)c1ccc(-c2ccccc2)cc1`, the IC50 in test [1] is 0.8 nM; in test [2], 490 nM; in [5], 4.1 nM; in test [8] it was 51 nM; in [9] it was 0.2 nM.
As to `COc1ccc(S(=O)(=O)c2ccccc2CC(=O)NO)cc1`, the IC50 amounted to 230 nM in [1]; 4100 nM in [2]; 98 nM in test [3]; 200 nM in [4]; 84 nM in test [5]; 280 nM in [6]. The half-maximal inhibitory concentration (IC50) in test [7] came to 730 nM; in [8] it was 130 nM; in test [9] it was 32 nM.
Regarding `C[S+]([O-])c1ccc(Oc2ccc(S(=O)(=O)c3ccccc3C(=O)NO)cc2)cc1` (stereo not given), the IC50 is 9900 nM in test [1]; more than 200000 nM in [2]; 51000 nM in test [3]; 120000 nM in test [4]; 20000 nM in test [5]; 9200 nM in test [6]. The values for the IC50 in test [7], in test [8] and in [9] were 60000 nM, 110000 nM and 5800 nM, respectively.
Take `COc1ccc(Oc2ccc(S(=O)(=O)c3ccccc3C(=O)NO)cc2)cc1`: the IC50 in test [1] is 1300 nM; in [2] it was more than 10000 nM; in test [3], 410 nM; in [4], 4000 nM; in test [5] it was 2700 nM; in test [6] it was 1900 nM. For the same compound, the IC50 in test [7] is 22000 nM; in test [8], 6000 nM; in test [9], 920 nM.
`COc1ccc(-c2ccc(S(=O)(=O)c3ccccc3C(=O)NO)cc2)cc1`: the IC50 in [1] was 100 nM; in test [2], 28000 nM; in test [3], 930 nM; in test [4], 1300 nM; in test [5], 260 nM; in [6], 87 nM. The IC50 amounted to 4000 nM in [7], 1200 nM in [8] and 70 nM in test [9].
`COc1ccc(-c2ccc(S(=O)(=O)c3ccccc3C(C)C(=O)NO)cc2)cc1` (racemic): the IC50 in test [1] was 7 nM; in test [2], more than 10000 nM; in test [3], 69 nM; in test [4] it was 360 nM; in test [5], 12 nM; in test [6], 54 nM. Besides, the half-maximal inhibitory concentration (IC50) in [7] stood at 1400 nM; in [8] it was 150 nM; in test [9] it was 2.7 nM.
Regarding `COc1ccc(-c2ccc(S(=O)(=O)c3ccccc3CC(=O)O)cc2)cc1`, the IC50 in test [1] turned out to be 47 nM; in test [10] it was 150 nM; in test [2] it was 4400 nM; in [3], 730 nM; in test [4], 740 nM; in [5] it was 78 nM. The IC50 is 99 nM in test [6]; 7500 nM in [7]; 730 nM in [8]; 170 nM in test [11]; 140 nM in test [9].
As to `O=C(NO)c1ccccc1S(=O)(=O)c1ccc(-c2ccccc2)cc1`, the concentration for half-maximal inhibition (IC50) in test [1] amounted to 1300 nM; in [2] it was 73000 nM; in test [3] it was 7700 nM; in [4], 8300 nM; in test [5], 1400 nM; in test [6], 1000 nM. Besides, the half-inhibitory concentration (IC50) was 45000 nM in test [7], 5100 nM in test [8] and 590 nM in test [9].
`O=C(O)Cc1ccccc1S(=O)(=O)c1ccc(-c2ccccc2)cc1`: the IC50 in test [1] amounted to 510 nM; in test [2] it was 23000 nM; in [3] it was 7300 nM; in test [4], 5400 nM; in [5], 260 nM; in test [6] it was 290 nM. Moreover, the values for the IC50 in test [7], in [8] and in test [9] were 74000 nM, 4300 nM and 1500 nM, respectively.
Take `COc1ccc(-c2ccc(S(=O)(=O)c3ccccc3C(C)C(=O)O)cc2)cc1` (racemic): the concentration for half-maximal inhibition (IC50) in [1] is 190 nM; in [2] it was more than 10000 nM; in [3], 3000 nM; in test [4], 2100 nM; in [5], 190 nM; in [6], 290 nM. Moreover, the values for the IC50 in [7], in [8] and in test [9] were 8000 nM, 1100 nM and 310 nM, respectively.
`CC(C(=O)O)c1ccccc1S(=O)(=O)c1ccc(-c2ccccc2)cc1` (racemic): the IC50 came out at 2400 nM in test [1]; 51000 nM in test [2]; 20000 nM in [3]; 18000 nM in test [4]; 1800 nM in [5]; 1900 nM in test [6]. Further, the IC50 in [7] was more than 100000 nM; in test [8] it was 6300 nM; in [9] it was 1900 nM.
As to `CC(C(=O)NO)c1ccccc1S(=O)(=O)c1ccc(-c2ccccc2)cc1` (racemic), the IC50 in test [1] is 73 nM; in test [2], 12000 nM; in [3] it was 340 nM; in test [4], 860 nM; in test [5], 74 nM; in test [6] it was 390 nM. Also, the half-inhibitory concentration (IC50) in test [7] is 5600 nM; in test [8], 470 nM; in test [9] it was 6 nM.
For `COc1ccc(S(=O)(=O)c2ccccc2CC(=O)O)cc1`, the IC50 in [1] was 58000 nM; in test [2], more than 100000 nM; in test [3] it was more than 100000 nM; in test [4], 77000 nM; in test [5], 55000 nM; in test [6], 74000 nM. The half-maximal inhibitory concentration (IC50) in test [7] is more than 100000 nM; in test [8], 93000 nM; in test [9] it was 89000 nM.
`COc1ccc(S(=O)(=O)c2ccccc2C(=O)NO)cc1`: the IC50 in test [1] was 35000 nM; in test [2] it was more than 100000 nM; in [3] it was 24000 nM; in test [4], 25000 nM; in [5] it was 28000 nM; in [6] it was 72000 nM. Besides, the concentration for half-maximal inhibition (IC50) in test [7] is more than 50000 nM; in [8] it was 31000 nM; in test [9] it was 14000 nM.
For the compound `CC(C)ON([C@@H](C(=O)O)C(C)C)S(=O)(=O)c1ccc(-c2ccccc2)cc1`, the half-inhibitory concentration (IC50) is 1500 nM in test [1]; more than 100000 nM in [2]; 24000 nM in [3]; 10000 nM in test [4]; 7900 nM in test [5]; 2000 nM in test [6]. Besides, the IC50 turned out to be 54000 nM in test [7], 18000 nM in [8] and 410 nM in test [9].
`COc1ccc(Oc2ccc(S(=O)(=O)c3ccccc3CC(=O)O)cc2)cc1`: the half-maximal inhibitory concentration (IC50) in test [1] is 710 nM; in test [2] it was more than 10000 nM; in [3], 420 nM; in test [4], 8100 nM; in test [5], 940 nM; in test [6], 1200 nM. Moreover, the values for the concentration for half-maximal inhibition (IC50) in test [7], in [8] and in test [9] were more than 10000 nM, 6500 nM and 380 nM, respectively.
Take `O=C(Cc1ccccc1S(=O)(=O)c1ccc(-c2ccccc2)cc1)NO`: the IC50 in test [1] is 38 nM; in test [2], 29000 nM; in test [3], 310 nM; in test [4], 940 nM; in test [5], 62 nM; in test [6], 370 nM. Also, the IC50 in test [7] is 23000 nM; in test [8], 220 nM; in test [9], 6 nM.
For the compound `COc1ccc(-c2ccc(S(=O)(=O)c3ccccc3CC(=O)NO)cc2)cc1`, the half-inhibitory concentration (IC50) came to 9.7 nM in test [1]; 8300 nM in test [2]; 94 nM in [3]; 710 nM in test [4]; 25 nM in test [5]; 120 nM in [6]. Further, the IC50 came to 1600 nM in test [7], 130 nM in test [8] and 4.8 nM in test [9].

In general, IC50 refers to the point on the concentration scale where inhibition reaches its midpoint.
